Assays:
[1] = animal models; cited from earlier work
[2] = target: T1, PPARγ / GST-RAC3 (amino acids 613-752) (Mus musculus, UniProt P37238); experiment: GST pull-down assay, PPARγ with GST-RAC3; assay type: binding; conditions: 20 μM AJA
T1 construct: made in house; host or cells: PPARγ1: reticulocyte lysate; GST-RAC3: E. coli BL21, kept on glutathione-Sepharose beads
T1 sequence (P37238 1-475 isoform P37238-2): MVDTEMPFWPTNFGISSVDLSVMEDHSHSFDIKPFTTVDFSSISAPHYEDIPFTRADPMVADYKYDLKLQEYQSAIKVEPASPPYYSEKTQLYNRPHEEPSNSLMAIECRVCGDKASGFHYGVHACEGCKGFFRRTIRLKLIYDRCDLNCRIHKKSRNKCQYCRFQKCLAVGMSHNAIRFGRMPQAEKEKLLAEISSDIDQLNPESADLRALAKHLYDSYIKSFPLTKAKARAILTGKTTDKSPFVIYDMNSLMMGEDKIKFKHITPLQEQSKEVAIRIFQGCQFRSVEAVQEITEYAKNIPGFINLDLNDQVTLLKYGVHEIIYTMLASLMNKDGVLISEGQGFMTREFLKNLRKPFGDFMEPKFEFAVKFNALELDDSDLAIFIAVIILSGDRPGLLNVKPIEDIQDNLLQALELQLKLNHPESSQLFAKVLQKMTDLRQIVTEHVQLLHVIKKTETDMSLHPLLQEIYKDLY
T1 sequence (Q9Y6Q9 613-752 partner limits assumed): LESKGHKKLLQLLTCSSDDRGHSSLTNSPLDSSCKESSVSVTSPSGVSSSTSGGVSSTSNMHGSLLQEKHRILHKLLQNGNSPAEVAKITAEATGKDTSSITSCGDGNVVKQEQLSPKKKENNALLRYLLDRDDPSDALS
Experimental: The glutathione S-transferase (GST)-DRIP205 (amino acid 527-970) and GST-RAC3 RID (amino acid 613-752) fusion proteins were expressed in BL21 cells by induction with 0.1 mM isopropyl-β-D-thiogalactopyranoside (IPTG) at room temperature for 4 hours. The bacterial pellet was resuspended in STE buffer (150 mM NaCl, 10 mM Tris pH 8.0, 1 mM EDTA), containing 5 mM dithiothreitol (DTT), 1 mM phenylmethlsulfonyl fluoride (PMSF) and 1.5% Sarkosyl. The cell suspension was sonicated and centrifuged at 7400 rpm at 4° C. for 30 minutes. The supernatant was isolated and 0.02% Triton-X 100 was added, and the mixture was then incubated with 1 ml 50% slurry of glutathione-Sepharose beads on a rotator at 4° C. for 30 minutes. The beads were spun down at 3000 rpm for 10 minutes, the supernatant was removed, and the beads were suspended in 1 ml cold PBS.
Approximately 5 μg of GST-DRIP205 or GST-RAC3 bound on glutathione-Sepharose beads and 4 μl ^35S-methionine-labeled mPPARγ1 were incubated with the indicated concentrations of AJA, GW347845, or vehicle alone in H buffer (20 mM Hepes [pH 7.7], 75 mM KCl, 0.1 mM EDTA, 2.5 mM MgCl2, 0.05% NP40, 0.1 mM methionine, 1 mM DTT) containing 1 mg/ml bovine serum albumin (BSA) on a rotator at 4° C. overnight. After three washes with cold PBS, the bound protein was eluted in SDS sample buffer and boiled for 10 min before SDS-PAGE and autoradiography. […]

PPARα = target: T2, PPARα (Mus musculus, UniProt P23204); experiment: Partial protease (trypsin) digestion assay, PPARα; assay type: binding; conditions: 2, 20 and 100 μM AJA
T2 construct: expressed in transfected cells; host or cells: HEK293 / HEK293T
T2 sequence (P23204 1-468): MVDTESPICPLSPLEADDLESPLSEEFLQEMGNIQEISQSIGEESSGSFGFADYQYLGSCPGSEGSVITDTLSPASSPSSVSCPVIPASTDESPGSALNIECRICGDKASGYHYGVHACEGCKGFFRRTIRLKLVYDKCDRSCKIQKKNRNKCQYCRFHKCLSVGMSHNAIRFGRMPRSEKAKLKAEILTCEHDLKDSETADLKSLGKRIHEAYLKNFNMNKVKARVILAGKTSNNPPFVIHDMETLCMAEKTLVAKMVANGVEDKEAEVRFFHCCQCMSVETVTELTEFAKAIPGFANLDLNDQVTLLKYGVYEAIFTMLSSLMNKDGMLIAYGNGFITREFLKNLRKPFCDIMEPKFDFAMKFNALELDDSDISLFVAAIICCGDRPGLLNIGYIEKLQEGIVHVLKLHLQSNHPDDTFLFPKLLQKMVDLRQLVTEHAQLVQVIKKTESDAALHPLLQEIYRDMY
Experimental: Partial protease digestion was carried out as described by Leng et. al. (J Steroid Biochem Mol Biol 46:643-61, 1993). PPAR proteins were made by in vitro transcription/translation reactions in reticulocyte lysate according to the manufacture's instructions (Promega). AJA, GW347845, or vehicle alone was incubated with the 35S-labeled PPARs at room temperature for one hour before trypsin digestion. Reactions were stopped by boiling in SDS-containing sample buffer, and lysates were subjected to SDS-PAGE and autoradiography.
The PPAR proteins were synthesized and labeled with ^35S-methionine in reticulocyte lysate and incubated with AJA, GW347845, or vehicle alone at room temperature for one hour before trypsin digestion. The reactions were terminated by boiling in SDS-containing protein sample buffer. The proteolytic patterns of PPAR proteins were then analyzed by SDS-PAGE and autoradiography, and compared with vehicle-treated control samples.
The AJA concentrations required to protect PPARγ from trypsin digestion were further measured.

Q: With CCCCCCC(C)(C)c1cc(O)c2c(c1)OC(C)(C)[C@@H]1CC=C(C(=O)O)C[C@@H]21 [AJA, dimethylheptyl-THC-11-oic acid] as the compound, how does the psychoactivity [1] read?
A: does not show the typical psychoactive effect

Q: What about the “binding of PPARγ to GST-RAC3” value [2] of the same compound?
A: increased binding

Q: And the “proteinase sensitivity of PPARα” value (PPARα)?
A: did not affect the proteinase sensitivity
